Test results taken from BigSolDB 2.1.

CO/N=C(/C(=O)N[C@@H]1C(=O)N2C(C(=O)O)=C(COC(N)=O)CS[C@H]12)c1ccco1
solubility (mole fraction) (in acetone, 278.5 K): 0.00362 | solubility (mole fraction) (in acetone, 283.4 K): 0.0036 | solubility (mole fraction) (in acetone, 288.3 K): 0.00355 | solubility (mole fraction) (in acetone, 293.3 K): 0.00342 | solubility (mole fraction) (in acetone, 298.3 K): 0.00337 | solubility (mole fraction) (in acetone, 303.5 K): 0.00331 | solubility (mole fraction) (in acetone, 308.3 K): 0.00327 | solubility (mole fraction) (in acetone, 313.4 K): 0.00324 | solubility (mole fraction) (in ethanol, 278.5 K): 0.00019 | solubility (mole fraction) (in ethanol, 283.4 K): 0.00022 | solubility (mole fraction) (in ethanol, 288.3 K): 0.00028 | solubility (mole fraction) (in ethanol, 293.3 K): 0.00032 | solubility (mole fraction) (in ethanol, 298.3 K): 0.00037 | solubility (mole fraction) (in ethanol, 303.5 K): 0.00052 | solubility (mole fraction) (in ethanol, 308.3 K): 0.00056 | solubility (mole fraction) (in ethanol, 313.4 K): 0.00061 | solubility (mole fraction) (in isopropanol, 278.5 K): 6e-05 | solubility (mole fraction) (in isopropanol, 283.4 K): 9e-05 | solubility (mole fraction) (in isopropanol, 288.3 K): 0.00011 | solubility (mole fraction) (in isopropanol, 293.3 K): 0.00012 | solubility (mole fraction) (in isopropanol, 298.3 K): 0.00012 | solubility (mole fraction) (in isopropanol, 303.5 K): 0.00015 | solubility (mole fraction) (in isopropanol, 308.3 K): 0.00027 | solubility (mole fraction) (in isopropanol, 313.4 K): 0.00032 | solubility (mole fraction) (in water, 278.5 K): 3e-05 | solubility (mole fraction) (in water, 283.4 K): 4e-05 | solubility (mole fraction) (in water, 288.3 K): 4e-05 | solubility (mole fraction) (in water, 293.3 K): 6e-05 | solubility (mole fraction) (in water, 298.3 K): 7e-05 | solubility (mole fraction) (in water, 303.5 K): 0.00012 | solubility (mole fraction) (in water, 308.3 K): 0.00022 | solubility (mole fraction) (in water, 313.4 K): 0.00026
